Test results reported in paper PMC4222501, “Synthetic organotelluride compounds induce the reversal of Pdr5p mediated fluconazole resistance in Saccharomyces cerevisiae” (BMC Microbiology, 2014).

Biological target: T1, Pdr5p (Saccharomyces cerevisiae, UniProt P33302)
T1 construct: gene PDR5; Pdr5p-enriched plasma membranes from strain AD124567
Experiment: ATPase activity (Pi release) in Pdr5p-enriched plasma membranes, Pdr5p-null membranes subtracted
Assay type: biochemical

T1 sequence (P33302 whole entry): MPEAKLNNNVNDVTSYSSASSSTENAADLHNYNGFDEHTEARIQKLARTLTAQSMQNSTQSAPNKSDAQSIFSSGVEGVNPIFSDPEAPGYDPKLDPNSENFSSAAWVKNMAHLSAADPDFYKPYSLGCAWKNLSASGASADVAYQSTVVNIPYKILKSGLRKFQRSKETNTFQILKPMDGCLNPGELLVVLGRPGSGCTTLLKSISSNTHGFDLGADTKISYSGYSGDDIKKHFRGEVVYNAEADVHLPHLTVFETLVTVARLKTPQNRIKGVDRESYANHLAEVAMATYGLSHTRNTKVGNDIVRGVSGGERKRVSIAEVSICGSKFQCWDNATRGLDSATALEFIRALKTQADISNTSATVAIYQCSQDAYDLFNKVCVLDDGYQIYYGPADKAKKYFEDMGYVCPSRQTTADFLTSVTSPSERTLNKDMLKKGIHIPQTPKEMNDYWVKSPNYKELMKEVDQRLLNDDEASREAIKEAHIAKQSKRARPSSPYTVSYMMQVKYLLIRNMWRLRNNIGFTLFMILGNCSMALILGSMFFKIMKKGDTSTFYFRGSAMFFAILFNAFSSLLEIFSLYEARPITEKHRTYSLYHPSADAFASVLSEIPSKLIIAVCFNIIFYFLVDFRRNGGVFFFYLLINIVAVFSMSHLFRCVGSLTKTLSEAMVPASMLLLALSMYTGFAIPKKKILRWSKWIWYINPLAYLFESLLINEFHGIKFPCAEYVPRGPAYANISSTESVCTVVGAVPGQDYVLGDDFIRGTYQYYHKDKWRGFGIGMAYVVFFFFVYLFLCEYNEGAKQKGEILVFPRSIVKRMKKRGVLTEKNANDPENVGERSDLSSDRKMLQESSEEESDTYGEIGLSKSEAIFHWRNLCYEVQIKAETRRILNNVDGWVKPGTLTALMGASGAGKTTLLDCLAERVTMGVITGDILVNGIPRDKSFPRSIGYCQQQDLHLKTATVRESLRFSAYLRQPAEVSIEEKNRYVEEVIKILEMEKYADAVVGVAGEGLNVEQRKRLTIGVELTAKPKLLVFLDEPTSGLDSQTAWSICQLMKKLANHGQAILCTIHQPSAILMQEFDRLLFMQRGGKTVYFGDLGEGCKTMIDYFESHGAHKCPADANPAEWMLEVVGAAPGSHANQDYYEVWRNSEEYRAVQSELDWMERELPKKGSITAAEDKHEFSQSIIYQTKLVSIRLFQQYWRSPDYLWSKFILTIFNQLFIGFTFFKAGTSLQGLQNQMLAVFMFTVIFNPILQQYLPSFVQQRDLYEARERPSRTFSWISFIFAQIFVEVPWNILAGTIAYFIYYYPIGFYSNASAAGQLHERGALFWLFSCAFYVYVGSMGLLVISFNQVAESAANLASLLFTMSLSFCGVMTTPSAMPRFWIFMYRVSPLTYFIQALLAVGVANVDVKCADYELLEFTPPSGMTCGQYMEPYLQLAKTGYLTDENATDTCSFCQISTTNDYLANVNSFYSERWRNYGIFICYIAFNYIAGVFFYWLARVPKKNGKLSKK

SMILES	IC50
CCCC[Te]CCCCNC(=O)c1ccccc1 [compound 3]	1740 ± 910 nM
CCCC[Te]CCCNC(=O)OC(C)(C)C [compound 1]	1140 ± 210 nM
CCCC[Te]CCCCCNC(=O)c1ccccc1 [compound 5]	1480 ± 320 nM
CCCC[Te]CCCNC(=O)c1ccccc1 [compound 2]	1450 ± 490 nM
